Entries after “also recorded” stand apart in the source; their conditions may differ.
How the values were obtained:
A. thaliana IspD = test system: A. thaliana IspD; design: method as in PMID 24446431, PMID 21766403, PMID 22975264; settings: known IspD inhibitors, Fig. 2; cited from earlier work
P. falciparum strain 3D7 [1] = test: Parasite growth inhibition with and without IPP supplementation (rescue); type: cell-based; settings: for IPP rescue of parasite growth: 200 μM IPP supplementation
Procedure: (§1) Asynchronous cultures of P. falciparum strain 3D7 were diluted to 1% parasitemia and cultured at indicated concentrations of inhibitor compounds in 100 μL culture volumes. During rescue experiments, parasite growth medium was supplemented with 200 μM isopentenyl pyrophosphate (IPP; Echelon Biosciences). After 72 hours, parasite growth was quantified using PicoGreen dye (Invitrogen) to measure DNA content as previously described. PicoGreen fluorescence was measured (485 nm excitation/528 nm emission) in a POLARStar Omega microplate reader (BMG Labtech).

MEP pathway = test: MEP metabolite profiling (LC-MS/MS of DOXP and MEcPP) in treated parasites; settings: 10 hours; for MEcPP levels compared to untreated parasites: 3 μM 8 or 5 μM FSM
P. vivax IspD = test system: P. vivax IspD; design: method as in PMID 24446431, PMID 21766403, PMID 22975264; settings: known IspD inhibitors, Fig. 2; cited from earlier work
P. falciparum IspD = test system: P. falciparum IspD; design: method as in PMID 26783558, PMID 25367906, PMID 24247137, PMID 25754494; settings: known IspD inhibitors, Fig. 2; cited from earlier work
PfIspD = PfIspD (Plasmodium falciparum, UniProt Q8I273); test: biochemical; settings: mean and SEM; n ≥ 3
Sequence of PfIspD (Q8I273 entry or part of it): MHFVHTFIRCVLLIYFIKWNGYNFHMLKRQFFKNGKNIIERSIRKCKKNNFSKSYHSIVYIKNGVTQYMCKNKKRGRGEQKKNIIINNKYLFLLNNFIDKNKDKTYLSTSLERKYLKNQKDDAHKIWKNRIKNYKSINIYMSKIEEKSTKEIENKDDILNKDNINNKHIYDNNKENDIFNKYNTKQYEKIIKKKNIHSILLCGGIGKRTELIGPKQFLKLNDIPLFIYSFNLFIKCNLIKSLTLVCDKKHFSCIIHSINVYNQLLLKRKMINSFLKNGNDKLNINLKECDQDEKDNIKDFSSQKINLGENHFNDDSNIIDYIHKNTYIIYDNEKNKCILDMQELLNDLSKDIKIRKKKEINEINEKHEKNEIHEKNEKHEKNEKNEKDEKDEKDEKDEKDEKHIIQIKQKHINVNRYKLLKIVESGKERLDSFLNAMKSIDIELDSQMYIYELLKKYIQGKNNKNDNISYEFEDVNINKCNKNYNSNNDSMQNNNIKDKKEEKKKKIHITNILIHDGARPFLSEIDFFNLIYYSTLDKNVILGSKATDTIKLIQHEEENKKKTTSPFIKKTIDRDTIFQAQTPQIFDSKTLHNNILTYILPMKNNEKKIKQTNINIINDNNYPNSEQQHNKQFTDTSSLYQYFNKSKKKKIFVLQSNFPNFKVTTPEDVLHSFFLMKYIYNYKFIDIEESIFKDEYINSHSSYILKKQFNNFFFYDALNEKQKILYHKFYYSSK
Procedure: (§2) Phosphate released by IspD was quantified using the EnzChek Phosphate Assay Kit (Invitrogen, Life Technologies), as previously described. 2-Amino-6-mercapto-7-methylpurine riboside (MESG) and purine nucleoside phosphorylase (PNP) were diluted and stored according to the manufacturer’s instructions. Final concentrations of reagents were as follows: 100 mM NaCl, 25 mM Tris pH 7.5, 7.5 mM MgCl2, 1 U/ml PNP, 0.1 U/mL yeast inorganic pyrophosphatase (New England Biolabs). […] Reactions were performed in 50 μL final volumes in 96-well clear flat bottom plates. In general, enzymes, buffers, and inhibitors were pre-warmed approximately 15 minutes at 37 °C, and reactions were then initiated by addition of the MEP substrate. […] Assays using E. coli IspD used 7.5 nM EcIspD-wt or 75 nM EcIspD-A14C. Absorbance at 360 nm was measured over time on a BMG POLARStar plate reader, preheated to 37 °C. Nonlinear regression analysis was performed using GraphPad Prism software. […] Slopes of changing absorbance values were converted to (μM MEP) (μM enzyme)^−1 s^−1 using a phosphate standard curve.

P. falciparum strain 3D7 [2] = test: Parasite sensitivity assay (PicoGreen, 72 hours), strain 3D7; type: cell-based; settings: Plasmodium falciparum, mean and SEM, n ≥ 3, read-out: (3D7) EC50, P. falciparum growth in culture
Procedure: (§3) Unless otherwise specified, P. falciparum parasites were cultured as previously described, in a 2% suspension of human erythrocytes in RPMI-1640 medium (Sigma Aldrich) supplemented with 27 mM sodium bicarbonate, 11 mM glucose, 5 mM HEPES, 1 mM sodium pyruvate, 0.37 mM hypoxanthine, 0.01 mM thymidine, 10 μg ml^−1 gentamicin and 0.5% Albumax (Life Technologies). Cultures were maintained in 5% O2/5% CO2/90% N2 at 37 °C. Parasite growth was monitored by microscopy of Giemsa-stained parasites. 3D7 strain parasites were obtained from the Malaria Research and Reference Reagent Resource Center, ATCC, Manassas, Virginia. D6 and 7G8 strains were obtained through BEI Resources Repository, NIAID, NIH: Plasmodium falciparum, Strain D6, MRA-285, contributed by D.E. Kyle; Plasmodium falciparum, Strain 7G8, MRA-152, contributed by David Walliker. The IPC 5202 strain was provided by the Malaria Research and Reference Reagent Resource Center (MR4) for distribution by BEI Resources NIAID, NIH: Plasmodium falciparum, Strain IPC 5202, also known as CAM3.IR539T; MRA-1240, contributed by Didier Ménard.
as §1

PvIspD = PvIspD (Plasmodium vivax, UniProt A5K9U5); test: IspD enzyme assay (EnzChek phosphate release), recombinant PvIspD; type: biochemical, P. vivax
Sequence of PvIspD (A5K9U5 entry or part of it): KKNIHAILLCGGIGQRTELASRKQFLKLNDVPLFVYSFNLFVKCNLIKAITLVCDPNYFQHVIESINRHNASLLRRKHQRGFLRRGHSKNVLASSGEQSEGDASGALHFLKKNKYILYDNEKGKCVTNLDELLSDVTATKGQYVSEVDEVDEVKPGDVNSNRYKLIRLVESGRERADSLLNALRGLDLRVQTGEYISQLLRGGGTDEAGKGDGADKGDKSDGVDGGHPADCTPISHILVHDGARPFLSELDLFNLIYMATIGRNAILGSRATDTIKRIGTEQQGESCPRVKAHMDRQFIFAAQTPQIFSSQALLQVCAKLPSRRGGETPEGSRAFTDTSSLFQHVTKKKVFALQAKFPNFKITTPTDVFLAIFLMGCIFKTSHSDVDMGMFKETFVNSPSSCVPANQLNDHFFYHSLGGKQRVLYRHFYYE
Procedure: as §2

P. falciparum strain D6 = test: Parasite sensitivity assay, strain D6 (mefloquine-resistant); type: cell-based; settings: Plasmodium falciparum, mean and SEM, read-out: Whole Cell Growth Inhibition EC50
Procedure: as §3, with “The IPC 5202 strain was provided by the Malaria Research and Reference Reagent Resource Center (MR4) for distribution by BEI Resources NIAID, NIH: Plasmodium falciparum, Strain IPC 5202, also known as CAM3.IR539T; MRA-1240, contributed by Didier Ménard.” left out
as §1, with “During rescue experiments, parasite growth medium was supplemented with 200 μM isopentenyl pyrophosphate (IPP; Echelon Biosciences).” left out

EcIspD-A14C = target: T1, EcIspD-A14C (Escherichia coli, UniProt Q46893, A14C); test: IspD enzyme assay, recombinant EcIspD-A14C mutant; type: biochemical, E. coli
T1 construct: Amplicons containing the entire E. coli IspD gene were generated; 6His (N); made in house; host or cells: Artic Express (DE3) RIL E. coli
T1 sequence (Q46893 whole entry A14C): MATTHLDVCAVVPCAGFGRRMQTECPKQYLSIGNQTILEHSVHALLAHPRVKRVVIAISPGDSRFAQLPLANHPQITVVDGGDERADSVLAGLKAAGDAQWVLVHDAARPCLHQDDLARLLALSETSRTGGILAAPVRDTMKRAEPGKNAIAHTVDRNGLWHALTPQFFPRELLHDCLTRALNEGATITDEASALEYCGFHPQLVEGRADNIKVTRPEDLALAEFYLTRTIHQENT
Procedure: as §2

P. falciparum strain 7G8 = test: Parasite sensitivity assay, strain 7G8 (multidrug (chloroquine)-resistant); type: cell-based; settings: Plasmodium falciparum, mean and SEM, read-out: Whole Cell Growth Inhibition EC50
Procedure: as §3, with “The IPC 5202 strain was provided by the Malaria Research and Reference Reagent Resource Center (MR4) for distribution by BEI Resources NIAID, NIH: Plasmodium falciparum, Strain IPC 5202, also known as CAM3.IR539T; MRA-1240, contributed by Didier Ménard.” left out
as §1, with “During rescue experiments, parasite growth medium was supplemented with 200 μM isopentenyl pyrophosphate (IPP; Echelon Biosciences).” left out

[3] = test system: P. falciparum strain IPC 5202; test: Parasite sensitivity assay, strain IPC 5202 (artemisinin-resistant); type: cell-based; settings: Plasmodium falciparum, mean and SEM, read-out: Whole Cell Growth Inhibition EC50
Procedure: as §3, with “The IPC 5202 strain was provided by the Malaria Research and Reference Reagent Resource Center (MR4) for distribution by BEI Resources NIAID, NIH: Plasmodium falciparum, Strain IPC 5202, also known as CAM3.IR539T; MRA-1240, contributed by Didier Ménard.” left out
as §1, with “During rescue experiments, parasite growth medium was supplemented with 200 μM isopentenyl pyrophosphate (IPP; Echelon Biosciences).” left out

PfIspD-C202A = test: IspD enzyme assay, recombinant PfIspD-C202A mutant; type: biochemical, P. falciparum; settings: prolonged (50 min.) incubation
Procedure: as §2

EcIspD-wt = target: T2, EcIspD-wt (Escherichia coli, UniProt Q46893); test: IspD enzyme assay, recombinant EcIspD-wt; type: biochemical, E. coli
T2 construct: 6His; made in house; host or cells: Artic Express (DE3) RIL E. coli
T2 sequence (Q46893 whole entry): as the sequence (Q46893 whole entry A14C) above, with C14A counted along it
Procedure: as §2

[4] = Calculated ClogD and aqueous solubility (AstraZeneca algorithms); settings: predicted values

Compound | IC50 (A. thaliana IspD) [nM] | IC50 (PfIspD) [nM] | EC50 (P. falciparum strain 3D7 [2]) [nM] | IC50 (PvIspD) [nM] | other results
Oc1c(Cc2ccccc2)c(Cl)cc2ncnn12 [3a] | 140 | – | – | – | –
N#Cc1cnn2c(O)c(Cc3ccccc3)c(Cl)cc12 [3b] | 35 | – | – | – | –
O=CN(O)CCCP(=O)(O)O [FSM, fosmidomycin, reference compound] | – | – | – | – | IPP rescue of parasite growth (P. falciparum strain 3D7 [1]): rescue; MEcPP levels compared to untreated parasites (MEP pathway): Significant decreases
Oc1c(Br)cc(Br)cc1-c1[nH]c(Br)c(Br)c1Br [compound 1] | 13000 | – | – | – | IC50 (P. vivax IspD): 48000 nM
COc1ccc2nc(NC(=O)c3cc(-c4ccccc4O)n[nH]3)sc2c1 [compound 2] | 1800 | – | – | – | –
O=C(O)[C@@H]1Cc2c([nH]c3ccccc23)[C@@H](c2ccc(Cl)cc2Cl)N1 [compound 4, 1R,3S-MMV008138] | – | – | – | – | IC50 (P. falciparum IspD): 47 nM
Cc1ccc(-n2sc3ccccc3c2=O)cc1S(=O)(=O)N1CCOCC1 [compound 7] | – | 450 ± 79 | 4300 ± 180 | 45 ± 20 | –
COc1ccc(-c2cccc(-n3sc4ccccc4c3=O)c2)cc1 [compound 8, 2-(4’-methoxy-[1,1’-biphenyl]-3-yl)benzo[d]isothiazol-3(2H)-one] | – | – | – | – | EC50 (P. falciparum strain D6): 800 ± 120 nM; IC50 (EcIspD-A14C): 440 ± 48 nM; EC50 (P. falciparum strain 7G8): 1020 ± 250 nM; IPP rescue of parasite growth (P. falciparum strain 3D7 [1]): did not observe rescue; also recorded: No rescue was observed; EC50 (P. falciparum strain 3D7 [1]; Plasmodium falciparum, 3D7, mean and SEM, n ≥ 3): 980 ± 240 nM; EC50 [3]: 1380 ± 190 nM; DOXP levels compared to untreated parasites (MEP pathway): not affected; MEcPP levels compared to untreated parasites (MEP pathway): Significant decreases; decrease in sensitivity, PfIspD-C202A versus PfIspD-wt (PfIspD-C202A): 6 fold; inhibition of recombinant EcIspD (wild type) (EcIspD-wt): highly resistant to inhibition
O=c1c2ccccc2sn1-c1cccc(-c2ccc(Cl)cc2)c1 [compound 9, 2-(4’-chloro-[1,1’-biphenyl]-3-yl)benzo[d]isothiazol-3(2H)-one] | – | 73 ± 20 | 1100 ± 160 | 57 ± 13 | –
O=c1c2ccccc2sn1-c1cccc(-c2ccc(C(F)(F)F)cc2)c1 [compound 10, 2-(4’-(trifluoromethyl)-[1,1’-biphenyl]-3-yl)benzo[d]isothiazol-3(2H)-one] | – | 270 ± 15 | 650 ± 21 | 41 ± 18 | –
CN1CCN(Cc2ccc(-c3cccc(-n4sc5ccccc5c4=O)c3)cc2)CC1 [compound 11, 2-(4’-((4-methylpiperazin-1-yl)methyl)-[1,1’-biphenyl]-3-yl)benzo[d]isothiazol-3(2H)-one] | – | 440 ± 75 | 420 ± 6 | 62 ± 26 | increase in predicted aqueous solubility compared to 9 [4]: 100 fold
O=c1c2ccccc2sn1-c1cccc(-c2ccc(CN3CCC(F)CC3)cc2)c1 [compound 12, 2-(4’-((4-fluoropiperidin-1-yl)methyl)-[1,1’-biphenyl]-3-yl)benzo[d]isothiazol-3(2H)-one] | – | 860 ± 110 | 320 ± 92 | 240 ± 100 | –
O=c1c2ccccc2sn1-c1cccc(-c2ccc(CN3CCOCC3)cc2)c1 [compound 13, 2-(4’-(morpholinomethyl)-[1,1’-biphenyl]-3-yl)benzo[d]isothiazol-3(2H)-one] | – | 400 ± 82 | 410 ± 82 | 50 ± 16 | –

From PMC5114681, “Molecular Mechanism of Action of Antimalarial Benzoisothiazolones: Species-Selective Inhibitors of the Plasmodium spp. MEP Pathway enzyme, IspD” (Scientific Reports, 2016)
